Measured values taken from ChEMBL document CHEMBL5143601, “Rationalizing the binding and α subtype selectivity of synthesized imidazodiazepines and benzodiazepines at GABAA receptors by using molecular docking studies” (Bioorg Med Chem Lett, 2022).

Experiments:
[1] = molecular target: T1, GABA A receptor alpha-2/beta-2/gamma-2 (Homo sapiens, UniProt P18507+P47869+P47870); experiment: Displacement of [3H]flunitrazepam from human recombinant alpha2beta2gamma2 GABAA receptor expressed in HEK cell membrane by competitive radioligand binding assay; assay type: cell membranes
T1 sequence (P47870 whole entry): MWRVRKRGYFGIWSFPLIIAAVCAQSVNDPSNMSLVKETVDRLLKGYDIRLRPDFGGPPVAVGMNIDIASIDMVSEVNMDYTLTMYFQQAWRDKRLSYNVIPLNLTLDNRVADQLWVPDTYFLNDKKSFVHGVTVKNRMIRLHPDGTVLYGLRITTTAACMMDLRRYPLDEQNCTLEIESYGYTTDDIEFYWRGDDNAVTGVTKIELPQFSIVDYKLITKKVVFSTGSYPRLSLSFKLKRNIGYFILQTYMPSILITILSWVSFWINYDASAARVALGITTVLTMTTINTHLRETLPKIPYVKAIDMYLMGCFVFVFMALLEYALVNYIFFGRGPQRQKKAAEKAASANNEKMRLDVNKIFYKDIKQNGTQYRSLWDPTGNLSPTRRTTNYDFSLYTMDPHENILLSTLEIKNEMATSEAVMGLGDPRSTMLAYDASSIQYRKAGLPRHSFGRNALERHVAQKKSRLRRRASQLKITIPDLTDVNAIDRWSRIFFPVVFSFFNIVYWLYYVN
T1 sequence (P18507 whole entry): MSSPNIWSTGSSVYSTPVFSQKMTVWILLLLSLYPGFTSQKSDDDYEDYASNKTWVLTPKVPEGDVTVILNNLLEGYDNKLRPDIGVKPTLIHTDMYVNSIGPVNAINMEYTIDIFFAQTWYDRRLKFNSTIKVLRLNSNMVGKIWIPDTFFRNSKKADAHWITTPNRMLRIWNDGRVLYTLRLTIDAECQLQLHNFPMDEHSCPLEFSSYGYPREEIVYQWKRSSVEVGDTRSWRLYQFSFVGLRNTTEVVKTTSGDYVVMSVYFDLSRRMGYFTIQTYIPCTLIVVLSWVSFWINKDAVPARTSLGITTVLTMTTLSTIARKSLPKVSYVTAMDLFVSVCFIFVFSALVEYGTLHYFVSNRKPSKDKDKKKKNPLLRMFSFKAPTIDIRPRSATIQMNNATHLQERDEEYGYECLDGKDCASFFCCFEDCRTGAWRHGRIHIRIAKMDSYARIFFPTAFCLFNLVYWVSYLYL
T1 sequence (P47869 whole entry): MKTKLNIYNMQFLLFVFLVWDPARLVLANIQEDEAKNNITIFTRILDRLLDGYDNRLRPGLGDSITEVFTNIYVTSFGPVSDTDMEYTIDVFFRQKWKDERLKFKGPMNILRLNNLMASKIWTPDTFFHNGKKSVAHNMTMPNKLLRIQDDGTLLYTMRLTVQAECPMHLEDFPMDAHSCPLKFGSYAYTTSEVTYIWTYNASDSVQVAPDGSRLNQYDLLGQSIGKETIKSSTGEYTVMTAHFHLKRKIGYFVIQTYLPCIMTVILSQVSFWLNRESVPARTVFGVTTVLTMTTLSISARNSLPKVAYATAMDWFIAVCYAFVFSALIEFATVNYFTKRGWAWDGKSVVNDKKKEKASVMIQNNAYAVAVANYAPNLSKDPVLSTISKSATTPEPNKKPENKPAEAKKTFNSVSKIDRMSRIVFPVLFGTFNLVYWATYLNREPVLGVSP

[2] = molecular target: T2, Gamma-aminobutyric acid receptor subunit alpha-5/beta-2/gamma-2 (Homo sapiens, UniProt P18507+P31644+P47870); experiment: Displacement of [3H]flunitrazepam from human recombinant alpha5beta2gamma2 GABAA receptor expressed in HEK cell membrane by competitive radioligand binding assay; assay type: cell membranes
T2 sequence (P47870 whole entry): T1 sequence (P47870 whole entry)
T2 sequence (P18507 whole entry): T1 sequence (P18507 whole entry)
T2 sequence (P31644 whole entry): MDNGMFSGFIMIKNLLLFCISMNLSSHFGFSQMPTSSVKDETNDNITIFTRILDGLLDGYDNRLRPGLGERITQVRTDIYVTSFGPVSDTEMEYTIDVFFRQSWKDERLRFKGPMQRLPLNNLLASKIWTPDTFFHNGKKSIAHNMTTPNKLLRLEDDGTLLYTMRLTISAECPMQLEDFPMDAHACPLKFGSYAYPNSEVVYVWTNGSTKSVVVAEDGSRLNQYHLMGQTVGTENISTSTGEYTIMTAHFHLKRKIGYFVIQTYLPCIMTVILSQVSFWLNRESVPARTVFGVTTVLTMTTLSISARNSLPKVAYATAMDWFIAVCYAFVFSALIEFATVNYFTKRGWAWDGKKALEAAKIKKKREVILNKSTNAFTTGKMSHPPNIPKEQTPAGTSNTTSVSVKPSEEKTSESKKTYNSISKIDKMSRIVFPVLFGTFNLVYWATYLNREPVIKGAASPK

[3] = molecular target: T3, GABA A receptor alpha-3/beta-2/gamma-2 (Homo sapiens, UniProt P18507+P34903+P47870); experiment: Displacement of [3H]flunitrazepam from human recombinant alpha3beta2gamma2 GABAA receptor expressed in HEK cell membrane by competitive radioligand binding assay; assay type: cell membranes
T3 sequence (P47870 whole entry): T1 sequence (P47870 whole entry)
T3 sequence (P18507 whole entry): T1 sequence (P18507 whole entry)
T3 sequence (P34903 whole entry): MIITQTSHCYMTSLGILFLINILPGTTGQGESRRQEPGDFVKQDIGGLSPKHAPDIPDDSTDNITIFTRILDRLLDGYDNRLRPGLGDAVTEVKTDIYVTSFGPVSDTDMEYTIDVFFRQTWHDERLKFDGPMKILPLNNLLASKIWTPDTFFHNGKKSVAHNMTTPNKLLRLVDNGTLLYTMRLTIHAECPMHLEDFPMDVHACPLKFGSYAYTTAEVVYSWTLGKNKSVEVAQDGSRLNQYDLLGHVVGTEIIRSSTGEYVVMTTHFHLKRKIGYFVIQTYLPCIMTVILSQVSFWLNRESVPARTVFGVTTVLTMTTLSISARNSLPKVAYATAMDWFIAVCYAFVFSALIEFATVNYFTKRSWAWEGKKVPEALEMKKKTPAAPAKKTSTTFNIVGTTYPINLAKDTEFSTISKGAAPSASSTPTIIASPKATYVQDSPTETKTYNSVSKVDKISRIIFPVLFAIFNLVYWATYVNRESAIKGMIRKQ

[4] = molecular target: T4, GABA-A receptor; alpha-1/beta-2/gamma-2 (Homo sapiens, UniProt P14867+P18507+P47870); experiment: Displacement of [3H]flunitrazepam from human recombinant alpha1beta2gamma2 GABAA receptor expressed in HEK cell membrane by competitive radioligand binding assay; assay type: cell membranes
T4 sequence (P14867 whole entry): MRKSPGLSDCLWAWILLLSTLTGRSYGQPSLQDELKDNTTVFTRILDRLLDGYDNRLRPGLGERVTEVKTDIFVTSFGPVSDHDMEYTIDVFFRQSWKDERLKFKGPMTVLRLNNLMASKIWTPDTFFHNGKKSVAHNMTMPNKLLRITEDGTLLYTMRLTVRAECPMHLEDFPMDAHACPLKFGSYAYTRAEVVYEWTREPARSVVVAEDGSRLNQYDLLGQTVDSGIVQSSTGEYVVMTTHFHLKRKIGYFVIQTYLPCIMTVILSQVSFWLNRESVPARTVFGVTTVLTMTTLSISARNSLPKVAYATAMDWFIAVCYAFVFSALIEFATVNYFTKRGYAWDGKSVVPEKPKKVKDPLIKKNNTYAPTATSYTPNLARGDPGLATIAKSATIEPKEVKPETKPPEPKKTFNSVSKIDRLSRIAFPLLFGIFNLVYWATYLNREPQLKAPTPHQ
T4 sequence (P47870 whole entry): T1 sequence (P47870 whole entry)
T4 sequence (P18507 whole entry): T1 sequence (P18507 whole entry)

Homo sapiens = species on record: Homo sapiens; experiment: Selectivity ratio of Ki for human recombinant alpha1beta2gamma2 GABAA receptor expressed in HEK cell membrane to Ki for human recombinant alpha5beta2gamma2 GABAA receptor expressed in HEK cell membrane; assay type: cell-based

| SMILES | Ki [1] [nM] | Ki [2] [nM] | Ki [3] [nM] | Ki [4] [nM] | Ratio Ki (Homo sapiens) |
| --- | --- | --- | --- | --- | --- |
| C#Cc1ccc2c(c1)C(c1ccccc1Cl)=NCc1nnc(C)n1-2 | 0.6 | 4.4 | 1.9 | 3.3 | – |
| CN1C(=O)CN=C(c2ccccc2)c2cc(Br)ccc21 | 9.3 | 7.7 | 31 | 9.4 | – |
| C[C@H]1N=C(c2ccccc2)c2cc(Br)ccc2NC1=O | > 3000 | > 3000 | > 3000 | > 3000 | – |
| Cc1nnc2n1-c1ccc(Br)cc1C(c1ccccc1Cl)=NC2 | 1 | 0.4 | 0.6 | 0.5 | – |
| C[C@@H]1N=C(c2ccccc2)c2cc(Br)ccc2NC1=O | 11 | 1.89 | 19.1 | 14.4 | 7 |
| O=C1CN=C(c2ccccc2)c2ccccc2N1 [RO-052921] | 233 | 140 | 350 | 288 | 2 |
| C#Cc1ccc2c(c1)C(c1ccccn1)=NCc1nnc(C)n1-2 | 81.3 | 45.6 | 104 | 144 | – |
| C#Cc1ccc2c(c1)C(c1ccccc1Cl)=NCC(=O)N2C | 0.99 | 1.96 | – | 1.6 | – |
| O=C1CN=C(c2ccccc2Cl)c2cc(Br)ccc2N1 [PHENAZEPAM] | 0.06 | 0.68 | 0.12 | 0.05 | – |
| C#Cc1ccc2c(c1)C(c1ccccc1F)=NCC(=O)N2C | 1.2 | 0.8 | 3.4 | 3.9 | – |
| O=C1CN=C(c2ccccc2F)c2cc(Br)ccc2N1 | 0.15 | 0.26 | 0.28 | 0.26 | – |
| C#Cc1ccc2c(c1)C(c1ccccc1)=N[C@@H](C)c1nnc(C)n1-2 | 50.1 | 8.1 | 20.9 | 107 | 13 |
| C#Cc1ccc2c(c1)C(c1ccccc1F)=NCc1nnc(C)n1-2 | 2.1 | 0.6 | – | 6.3 | – |
| Cc1nnc2n1-c1ccc(Cl)cc1C(c1ccccc1)=NC2 [ALPRAZOLAM] | 0.6 | 1.5 | 1.4 | 0.8 | – |
| C#Cc1ccc2c(c1)C(c1ccccc1)=NCc1nnc(C)n1-2 | 25.8 | 5.3 | – | 36.4 | 6 |
| Cc1nnc2n1-c1ccc(Br)cc1C(c1ccccc1)=NC2 | 0.7 | 0.6 | – | 2.8 | – |
| C#Cc1ccc2c(c1)C(c1ccccc1)=NCC(=O)N2C | 42.1 | 6.8 | 47.4 | 76.3 | 11 |
| CN1C(=O)CN=C(c2ccccc2)c2ccccc21 | 138 | 98 | 318 | 81 | – |
| Cc1nnc2n1-c1ccc(Br)cc1C(c1ccccn1)=NC2 | 6.1 | 7.7 | 5.1 | 7.3 | – |
